Test results from publication PMC11868595, “Safety, pharmacokinetics and efficacy of HA121-28 in patients with advanced solid tumors and RET fusion-positive non-small-cell lung cancer: a multicenter, open-label, single-arm phase 1/2 trial” (Signal Transduction and Targeted Therapy, 2025).

Tested on: patients with advanced solid tumors
Experiment: Phase 1 trial: adverse events (CTCAE), DLT and MTD
Format: in vivo, human
Conditions: Phase 1, 450 mg (N=79)
Procedure: The phase 1 trial was a two-part, multicenter, open-label, nonrandomized study to evaluate the safety and preliminary efficacy of HA121-28.
Safety, tolerability, and PK of HA121-28 was assessed in dose-escalation part. The single-patient accelerated titration was carried out at 25 mg and 50 mg; then, the dose escalation proceeded according to a “3 + 3” design in dose range of 100 to 800 mg. Escalation to a higher dose level was considered by the satisfactory review of safety results from the previous lower dose during the first cycle.
The dose-expansion part aims to further access the safety and efficacy of HA121-28 at the selected doses based on data from the dose-escalation part. The RP2D was determined by investigators in view of a thorough review of safety, PK, and efficacy results.
In phase 1 trial, during the dose-escalation part, patients first administered HA121-28 in a single ascending dose under the fasted state, then followed up for seven days. Then, patients received ascending doses of HA121-28 (q.d.) on a 21-day on and 7-day off treatment scheme for a 28-day cycle. For patients deemed beneficial from the treatment by investigators, treatment could remain until disease progression, or they discontinued from the study. In the dose-expansion part of phase 1, as well as phase 2, patients received HA121-28 (q.d.) at the selected doses on a 21-day on and 7-day off treatment scheme until disease progression, or they discontinued from the study.
Treatment-emergent adverse events (TEAEs) were documented during the entire study period. The predefined adverse event of special interest (AESI) was ≥ grade 3 prolonged QT interval. Tumor imaging was performed using contrast-enhanced computed tomography or magnetic resonance imaging at screening, Day 28 of the first cycle, then approximately every eight weeks till the end of the study for phase 1; in phase 2, imaging was scheduled at screening, and every eight weeks during the first 40 weeks, followed by every 12 weeks for the rest of the study period. RECIST 1.1 was used by the independent review committee or investigators for assessment of tumor response. After the original assessment, a repeated assessment was required around four weeks later to confirm a complete or partial response.
The primary endpoints of phase 1 were to investigate the MTD, dose-limiting toxicities, and the incidence and severity of TEAEs. Each TEAE was graded according to the Common Terminology Criteria for Adverse Events (CTCAE, version 5.0) and coded by Medical Dictionary for Regulatory Activities (MedDRA, version 21.0). The secondary endpoints included calculating PK parameters, assessing the ORR and DCR at the recommended dose by investigators as per RECIST 1.1. The exploratory endpoint was PFS.
If grade 2 or higher toxicity related to the study drug occurs in Groups 1 and 2 (as determined by the investigator), dose escalation will proceed using a 3+3 design starting from that dose level. If no DLT is observed at the 800 mg/d dose level after dose escalation, a meeting of investigators will be convened to decide whether to proceed with further dose escalation based on the available PK data, safety, and tolerability information.
5. Definition of DLT and MTD
The following events related to the study drug (including those that are definitely related, highly likely to be related, and possibly related):
(1) Grade 4 hematologic toxicity or grade 3 neutropenia accompanied by a fever of 38.5℃ or higher, or grade 3 thrombocytopenia accompanied by severe bleeding.
(2) Patients who discontinued the medication for more than 7 days due to unresolved toxicity reactions or who discontinued the medication more than twice due to toxicity […]
(3) In the context of supportive treatment, diarrhea of grade 2 lasting more than 7 days, or grade 3 diarrhea lasting more than 3 days.

COc1cc2c(Nc3ccc(Br)cc3F)ncnc2cc1OCCCCN(C)C.Cl.Cl [HA121-28, N-(4-bromo-2-fluorophenyl)-7-(4-(dimethylamino)butoxy)-6-methoxy quinazolin-4-amine dihydrochloride]
9 (11.4) No. (%): Serious TRAE: Any
2 (2.5) No. (%): Serious TEAE: Hemoptysis | Serious TEAE: Seizure
0 No. (%): Serious TEAE: Acute pancreatitis | Serious TEAE: Anal abscess | Serious TEAE: Aortic intramural hematoma | Serious TEAE: Blood bilirubin increased | Serious TEAE: Blood creatinine increased | Serious TEAE: COVID-19 | Serious TEAE: Coronary artery atherosclerosis | Serious TEAE: Diarrhea | Serious TEAE: Drug eruption | Serious TEAE: Dyspnea | Serious TEAE: Embolism | Serious TEAE: Erythema multiforme | Serious TEAE: Headache | Serious TEAE: Hydronephrosis | Serious TEAE: Hypoalbuminemia | Serious TEAE: Intra-abdominal fluid collection | Serious TEAE: Intracranial tumor hemorrhage | Serious TEAE: Liver injury | Serious TEAE: Lung adenocarcinoma | Serious TEAE: Nausea | Serious TEAE: Nephrolithiasis | Serious TEAE: Platelet counts decreased | Serious TEAE: Pneumonia | Serious TEAE: Prolonged QT interval | Serious TEAE: Pulmonary embolism | Serious TEAE: Pyrexia | Serious TEAE: Respiratory failure | Serious TEAE: Septic shock | Serious TEAE: Sudden cardiac arrest | Serious TEAE: Sudden death | Serious TEAE: Ventricular tachycardia | Serious TEAE: Vomiting | Serious TEAE: Weight loss | Serious TRAE: ALT increased | Serious TRAE: AST increased | Serious TRAE: Abdominal Pain | Serious TRAE: Abdominal distension | Serious TRAE: Acute cholecystitis | Serious TRAE: Acute pancreatitis | Serious TRAE: Anal abscess | Serious TRAE: Aortic intramural hematoma
15 (19.0) No. (%): Serious TEAE: Any
1 (1.3) No. (%): Serious TEAE: Arrhythmia | Serious TEAE: Cardiac tamponade | Serious TEAE: Death | Serious TEAE: Hypertension | Serious TEAE: Intestinal obstruction | Serious TEAE: Malignant neoplasm progression | Serious TEAE: Multiple organ dysfunction syndrome | Serious TEAE: Pleural effusion | Serious TEAE: Pneumonitis | Serious TEAE: Rash | Serious TEAE: Rectal hemorrhage | Serious TEAE: Upper respiratory tract infection
